Measured values from patent US9321760B2 (Merck Patent GmbH, priority 2011, dated 2016).

Each compound was assayed against P70S6K (T412E mutant) (Homo sapiens (Human), UniProt P23443, T412E) (assay: P70S6K enzyme assay). Conditions: 3 nM P70S6K T412E mutant, 24 μM ATP, 1 μM FITC-AHA-AKRRRLSSLRA-OH substrate peptide, 90 min at 25° C.
Format: biochemical
Outline: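 P70S6K T412E mutant (3 nM) with 24 μM ATP and 1 μM FITC-labelled S6-derived peptide in Hepes pH 7.5, MgCl2, DTT, Brij buffer; 90 min at 25° C, stopped with EDTA. Phosphorylated product and substrate peptides separated by microfluidic mobility shift; IC50 values derived.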

Sequence of P70S6K (T412E mutant) (P23443 whole entry T412E): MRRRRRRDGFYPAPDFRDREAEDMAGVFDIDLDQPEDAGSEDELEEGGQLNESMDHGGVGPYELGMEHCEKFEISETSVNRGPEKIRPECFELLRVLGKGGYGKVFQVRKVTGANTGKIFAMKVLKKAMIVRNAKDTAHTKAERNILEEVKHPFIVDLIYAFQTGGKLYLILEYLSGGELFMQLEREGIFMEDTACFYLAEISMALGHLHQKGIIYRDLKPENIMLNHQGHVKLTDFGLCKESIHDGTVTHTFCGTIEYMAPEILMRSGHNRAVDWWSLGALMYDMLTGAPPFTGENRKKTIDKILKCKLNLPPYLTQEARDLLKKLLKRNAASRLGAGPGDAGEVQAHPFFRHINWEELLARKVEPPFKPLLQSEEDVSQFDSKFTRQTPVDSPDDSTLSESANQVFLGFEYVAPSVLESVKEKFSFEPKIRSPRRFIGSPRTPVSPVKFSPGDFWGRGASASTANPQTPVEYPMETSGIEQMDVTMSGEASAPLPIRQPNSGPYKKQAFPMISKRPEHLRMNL

Row | Compound | IC50
1 | Nc1ncnc(N2CC[C@](N)(CNC(=O)c3ccc(F)cc3F)C2)c1-c1ccc(F)cc1 (single isomer, unassigned) [Example 249] | 5.9 nM
2 | N#CC(c1ccc(Cl)cc1)N1CCN(c2ncnc(N)c2-c2ccc(F)cc2)CC1 (centres unmarked) [Example 162, {4-[6-Amino-5-(4-fluoro-phenyl)-pyrimidin-4-yl]-piperazin-1-yl}-(4-chloro-phenyl)-acetonitrile] | 68 nM
3 | NCC(c1ccc(C(F)(F)F)cc1)N1CCN(c2ncnc(N)c2-c2cnoc2)CC1 (centres unmarked) [Example 38, 6-(4-(2-amino-1-(4-(trifluoromethyl)phenyl)ethyl)piperazin-1-yl)-5-(isoxazol-4-yl)pyrimidin-4-amine] | 100 nM
4 | Nc1ncnc(N2CCC(N)(CNC(=O)c3ccc(F)cc3F)C2)c1-c1cccc(F)c1 (centres unmarked) [Example 204, N-{3-Amino-1-[6-amino-5-(3-fluoro-phenyl)-pyrimidin-4-yl]-pyrrolidin-3-ylmethyl}-2,4-difluoro-benzamide] | 2.6 nM
5 | NCC(c1ccc(Cl)c(F)c1)N1CCN(c2ncnc(N)c2-c2ccc(F)cc2)CC1 (centres unmarked) [Example 165, 6-{4-[2-Amino-1-(4-chloro-3-fluoro-phenyl)-ethyl]-piperazin-1-yl}-5-(4-fluoro-phenyl)-pyrimidin-4-ylamine] | 0.9 nM
6 | N#CC(c1ccc(C(F)(F)F)nc1)N1CCN(c2ncnc(N)c2-c2ccc(F)cc2)CC1 (centres unmarked) [Example 189, {4-[6-Amino-5-(4-fluoro-phenyl)-pyrimidin-4-yl]-piperazin-1-yl}-(6-trifluoromethyl-pyridin-3-yl)-acetonitrile] | 140 nM
7 | CN(C)CC(c1ccc(C(F)(F)F)cc1)N1CCN(c2ncnc(N)c2Br)CC1 (centres unmarked) [Example 14, 5-bromo-6-(4-(2-(dimethylamino)-1-(4-(trifluoromethyl)phenyl)ethyl)piperazin-1-yl)pyrimidin-4-amine] | 38 nM
8 | N#Cc1c(N)ncnc1N1CCN(C(CN)c2ccc(C(F)(F)F)cc2)CC1 (centres unmarked) [Example 36, 4-Amino-6-{4-[2-amino-1-(4-trifluoromethyl-phenyl)-ethyl]-piperazin-1-yl}-pyrimidine-5-carbonitrile] | 14 nM
9 | CN(C)CC(c1ccc(C(F)(F)F)cc1)N1CCN(c2ncnc(N)c2-c2ccc(N)nc2)CC1 (centres unmarked) [Example 20, 5-(6-aminopyridin-3-yl)-6-(4-(2-(dimethylamino)-1-(4-(trifluoromethyl)-phenyl)ethyl)piperazin-1-yl)pyrimidin-4-amine] | 69 nM
10 | CCOc1c(N)ncnc1N1CCN(C(CN)c2ccc(C(F)(F)F)cc2)CC1 (centres unmarked) [Example 32, 6-(4-(2-amino-1-(4-(trifluoromethyl)phenyl)ethyl)piperazin-1-yl)-5-ethoxypyrimidin-4-amine] | 48.5 nM
11 | CN(C)CCNC(=O)C(c1ccc(C(F)(F)F)cc1)N1CCN(c2ncnc(N)c2-c2ccc(F)cc2)CC1 (centres unmarked) [Example 18, 2-(4-(6-amino-5-(4-fluorophenyl)pyrimidin-4-yl)piperazin-1-yl)-N-(2-(dimethylamino)ethyl)-2-(4-(trifluoromethyl)phenyl)acetamide] | 18 nM
12 | NCC(c1ccc(C(F)(F)F)cc1)N1CCN(c2ncnc(N)c2OCc2ccccc2)CC1 (centres unmarked) [Example 34, 6-(4-(2-amino-1-(4-(trifluoromethyl)phenyl)ethyl)piperazin-1-yl)-5-(benzyloxy)pyrimidin-4-amine] | 57 nM
13 | CCc1c(N)ncnc1N1CCN([C@@H](CN)c2ccc(Cl)cc2)CC1 [Example 180, 6-{4-[(R)-2-Amino-1-(4-chloro-phenyl)-ethyl]-piperazin-1-yl}-5-ethyl-pyrimidin-4-ylamine] | 190 nM
14 | Nc1ncnc(N2CCC(Cc3ccc(-c4ccc(F)cc4)cc3)CC2)c1-c1ccc(F)cc1 [Example 50, 5-(4-Fluorophenyl)-6{4-(4-(4-fluorophenyl)benzyl)-piperidin-1-yl}pyrimidin-4-amine] | 450 nM
15 | Nc1ncnc(N2CCC(N)(C(=O)N[C@H](c3ccc(Cl)cc3)C(F)(F)F)CC2)c1Cl [Example 216, 4-Amino-1-(6-amino-5-chloro-pyrimidin-4-yl)-piperidine-4-carboxylic acid [(R)-1-(4-chloro-phenyl)-2,2,2-trifluoroethyl]-amide] | 820 nM
16 | NCC(c1ccc(C(F)(F)F)cc1)C1CCN(c2ncnc(N)c2-c2cn[nH]c2)CC1 (centres unmarked) [Example 55, 6-(4-(2-amino-1-(4-(trifluoromethyl)phenyl)ethyl)piperidin-1-yl)-5-(1H-pyrazol-4-yl)pyrimidin-4-amine] | 5.2 nM
17 | Nc1ncnc(N2CCC(N)(C(=O)N[C@@H](CCO)c3ccc(F)cc3)CC2)c1Cl [Example 236, 4-Amino-1-(6-amino-5-chloro-pyrimidin-4-yl)-piperidine-4-carboxylic acid [(S)-1-(4-fluoro-phenyl)-3-hydroxy-propyl]-amide] | 900 nM
18 | N#Cc1c(N)ncnc1N1CCC(N)(C(=O)N[C@H](c2ccc(Cl)cc2)C(F)(F)F)CC1 [Example 220] | 3200 nM
19 | CC[C@H](NC(=O)C1(N)CCN(c2ncnc(N)c2C(N)=O)CC1)c1ccc(Cl)cc1 [Example 245, 4-Amino-6-{4-amino-4-[(S)-1-(4-chloro-phenyl)-propylcarbamoyl]-piperidin-1-yl}-pyrimidine-5-carboxylic acid amide] | 2400 nM
20 | N#Cc1c(N)ncnc1N1CCC(N)(C(=O)N[C@@H](CCO)c2ccc(C(F)(F)F)cc2)CC1 [Example 230, 4-Amino-1-(6-amino-5-cyano-pyrimidin-4-yl)-piperidine-4-carboxylic acid [(S)-3-hydroxy-1-(4-trifluoromethyl-phenyl)-propyl]-amide] | 18000 nM
21 | Nc1ncnc(N2CCC(N)(C(=O)N[C@@H](CCO)c3ccncc3)CC2)c1Cl [Example 239, 4-Amino-1-(6-amino-5-chloro-pyrimidin-4-yl)-piperidine-4-carboxylic acid ((S)-3-hydroxy-1-pyridin-4-yl-propyl)-amide] | 7200 nM
22 | NCC(c1ccc(F)c(C(F)(F)F)c1)N1CCN(c2ncnc(N)c2-c2ccc(F)cc2)CC1 (centres unmarked) [Example 155, 6-{4-[2-Amino-1-(4-fluoro-3-trifluoromethyl-phenyl)-ethyl]-piperazin-1-yl}-5-(4-fluoro-phenyl)-pyrimidin-4-ylamine] | 14 nM
23 | NCC(c1ccc(C(F)(F)F)cc1)C1CCN(c2ncnc(N)c2-c2cnoc2)CC1 (centres unmarked) [Example 59, 6-(4-(2-amino-1-(4-(trifluoromethyl)phenyl)ethyl)piperidin-1-yl)-5-(isoxazol-4-yl)pyrimidin-4-amine] | 140 nM

Second part, the compound after the results:

Row | IC50 | Compound
24 | 300 nM | COc1ccc(C(CN2CCC2)N2CCN(c3ncnc(N)c3-c3ccc(F)cc3)CC2)cc1F (centres unmarked) [Example 92, 6-{4-[2-Azetidin-1-yl-1-(3-fluoro-4-methoxy-phenyl)-ethyl]-piperazin-1-yl}-5-(4-fluoro-phenyl)-pyrimidin-4-ylamine]
25 | 5200 nM | Nc1ncnc(N2CCN([C@@H](CN3CCC3)c3ccc4c(c3)OCCO4)CC2)c1-c1cn[nH]c1 [Example 107, 6-{4-[(R)-2-Azetidin-1-yl-1-(2,3-dihydro-benzo[1,4]dioxin-6-yl)-ethyl]-piperazin-1-yl}-5-(1H-pyrazol-4-yl)-pyrimidin-4-ylamine]
26 | 11 nM | Cn1cc(-c2c(N)ncnc2N2CCN(C(CN)c3ccc(C(F)(F)F)cc3)CC2)cn1 (centres unmarked) [Example 40, 6-{4-[2-Amino-1-(4-trifluoromethyl-phenyl)-ethyl]-piperazin-1-yl}-5-(1-methyl-1H-pyrazol-4-yl)-pyrimidin-4-ylamine]
27 | 5.7 nM | NC[C@@H](c1ccc(C(F)(F)F)cc1)N1CCN(c2ncnc(N)c2-c2cn[nH]c2)CC1 [Example 9, (R)-6-(4-(2-amino-1-(4-(trifluoromethyl)phenyl)ethyl)piperazin-1-yl)-5-(1H-pyrazol-4-yl)pyrimidin-4-amine]
28 | > 1000 nM | Nc1ncnc(N2CCN(C(CCCN3CCC3)c3ccc(Cl)cc3)CC2)c1-c1ccc(F)cc1 (centres unmarked) [Example 113, 6-{4-[4-Azetidin-1-yl-1-(4-chloro-phenyl)-butyl]-piperazin-1-yl}-5-(4-fluoro-phenyl)-pyrimidin-4-ylamine]
29 | 4 nM | NCC(c1ccc(F)c(Cl)c1)N1CCN(c2ncnc(N)c2-c2ccc(F)cc2)CC1 (centres unmarked) [Example 161, 6-{4-[2-Amino-1-(3-chloro-4-fluoro-phenyl)-ethyl]-piperazin-1-yl}-5-(4-fluoro-phenyl)-pyrimidin-4-ylamine]
30 | 950 nM | Nc1ncnc(N2CCN(C(CN3CCC3)c3ccc4c(c3)CCCC4)CC2)c1-c1cn[nH]c1 (centres unmarked) [Example 122, 6-{4-[2-Azetidin-1-yl-1-(5,6,7,8-tetrahydro-naphthalen-2-yl)-ethyl]-piperazin-1-yl}-5-(1H-pyrazol-4-yl)-pyrimidin-4-ylamine]
31 | > 1000 nM | Nc1cc(N2CCN(C(CN3CCCCC3)c3cccc(F)c3)CC2)ncn1 (centres unmarked) [Example 76, 6-{4-[1-(3-fluorophenyl)-2-piperidin-1-yl-ethyl]-piperazin-1-yl}-pyrimidin-4-ylamine]
32 | > 1000 nM | Nc1ncnc(N2CCN(C(CN3CCCC3)c3ccc(F)cc3)CC2)c1Cl (centres unmarked) [Example 81, 5-Chloro-6{4-[1-(4-fluorophenyl)-2-pyrrolidin-1-yl-ethyl]-piperazin-1-yl}-pyrimidin-4-ylamine]
33 | 6 nM | Cn1cc(-c2c(N)ncnc2N2CCN([C@@H](CN)c3ccc(C(F)(F)F)cc3)CC2)cn1 [Example 42, 6-{4-[(R)-2-Amino-1-(4-trifluoromethyl-phenyl)-ethyl]-piperazin-1-yl}-5-(1-methyl-1H-pyrazol-4-yl)-pyrimidin-4-ylamine]
34 | 60 nM | CS(=O)(=O)c1ccc(C(CN)N2CCN(c3ncnc(N)c3-c3cn[nH]c3)CC2)cc1 (centres unmarked) [Example 185, 6-(4-(2-amino-1-(4-(methylsulfonyl)phenyl)ethyl)piperazin-1-yl)-5-(1H-pyrazol-4-yl)pyrimidin-4-amine]
35 | 6300 nM | N#Cc1cccc([C@H](CN2CCC2)N2CCN(c3ncnc(N)c3-c3cn[nH]c3)CC2)c1 [Example 91, 3-((R)-1-{4-[6-Amino-5-(1H-pyrazol-4-yl)-pyrimidin-4-yl]-piperazin-1-yl}-2-azetidin-1-yl-ethyl)-benzonitrile]
